The source of these data is patent publication US11040981B2, “Pyrrolotriazine compounds and methods of inhibiting TAM kinases” (Syros Pharmaceuticals, Inc., priority 2017, dated 2021).

Some results are limits rather than exact numbers.

One test deals with T1, MERTK (Homo sapiens, UniProt Q12866).
T1 sequence (Q12866 21-999): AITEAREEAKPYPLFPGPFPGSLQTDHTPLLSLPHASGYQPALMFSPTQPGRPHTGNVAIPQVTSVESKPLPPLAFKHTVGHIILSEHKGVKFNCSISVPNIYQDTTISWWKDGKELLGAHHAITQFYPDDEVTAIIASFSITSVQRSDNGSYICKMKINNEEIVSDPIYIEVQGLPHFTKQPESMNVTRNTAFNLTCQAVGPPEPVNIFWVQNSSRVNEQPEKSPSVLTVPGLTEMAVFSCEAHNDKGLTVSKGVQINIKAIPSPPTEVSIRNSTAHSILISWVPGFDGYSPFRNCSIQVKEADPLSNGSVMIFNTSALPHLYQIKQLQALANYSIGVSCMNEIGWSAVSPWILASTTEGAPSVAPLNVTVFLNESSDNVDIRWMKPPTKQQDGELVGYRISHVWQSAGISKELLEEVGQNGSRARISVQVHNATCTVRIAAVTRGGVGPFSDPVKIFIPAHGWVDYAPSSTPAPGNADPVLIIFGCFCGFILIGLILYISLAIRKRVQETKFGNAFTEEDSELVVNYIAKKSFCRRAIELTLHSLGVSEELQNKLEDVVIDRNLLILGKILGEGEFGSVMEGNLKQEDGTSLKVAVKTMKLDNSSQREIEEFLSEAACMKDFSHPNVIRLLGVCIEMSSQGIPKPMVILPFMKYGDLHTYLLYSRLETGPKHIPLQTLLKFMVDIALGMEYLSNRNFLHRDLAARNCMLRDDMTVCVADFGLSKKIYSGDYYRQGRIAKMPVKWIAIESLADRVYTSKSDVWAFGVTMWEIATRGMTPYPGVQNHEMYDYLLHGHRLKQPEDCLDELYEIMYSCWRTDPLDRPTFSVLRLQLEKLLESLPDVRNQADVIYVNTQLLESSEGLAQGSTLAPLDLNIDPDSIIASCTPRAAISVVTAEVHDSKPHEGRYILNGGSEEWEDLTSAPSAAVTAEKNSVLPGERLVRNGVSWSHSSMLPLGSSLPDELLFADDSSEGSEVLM
The test is described as follows: TR-FRET kinase activity assay, MERTK. In kind it is biochemical. Conditions: for IC50: TR-FRET activity assay, ATP at Km, 60 minutes, read-out: Mer IC50; for FLT3/Mer ratio (FLT3 IC50/Mer IC50): ratio calculated as FLT3 IC50/Mer IC50. The method, boiled down: (§1)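 Inhibition is measured as loss of phospho-peptide formation: kinase, fluorescent tyrosine peptide and compound are combined, ATP is added at Km, and the reaction proceeds 60 min at RT in pH 7.5 HEPES buffer. An EDTA stop and Eu-labelled phospho-specific antibody allow TR-FRET detection for IC50 fitting.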

Another test concerns the target T2, TYRO3 (Homo sapiens, UniProt Q06418).
T2 sequence (Q06418 41-890): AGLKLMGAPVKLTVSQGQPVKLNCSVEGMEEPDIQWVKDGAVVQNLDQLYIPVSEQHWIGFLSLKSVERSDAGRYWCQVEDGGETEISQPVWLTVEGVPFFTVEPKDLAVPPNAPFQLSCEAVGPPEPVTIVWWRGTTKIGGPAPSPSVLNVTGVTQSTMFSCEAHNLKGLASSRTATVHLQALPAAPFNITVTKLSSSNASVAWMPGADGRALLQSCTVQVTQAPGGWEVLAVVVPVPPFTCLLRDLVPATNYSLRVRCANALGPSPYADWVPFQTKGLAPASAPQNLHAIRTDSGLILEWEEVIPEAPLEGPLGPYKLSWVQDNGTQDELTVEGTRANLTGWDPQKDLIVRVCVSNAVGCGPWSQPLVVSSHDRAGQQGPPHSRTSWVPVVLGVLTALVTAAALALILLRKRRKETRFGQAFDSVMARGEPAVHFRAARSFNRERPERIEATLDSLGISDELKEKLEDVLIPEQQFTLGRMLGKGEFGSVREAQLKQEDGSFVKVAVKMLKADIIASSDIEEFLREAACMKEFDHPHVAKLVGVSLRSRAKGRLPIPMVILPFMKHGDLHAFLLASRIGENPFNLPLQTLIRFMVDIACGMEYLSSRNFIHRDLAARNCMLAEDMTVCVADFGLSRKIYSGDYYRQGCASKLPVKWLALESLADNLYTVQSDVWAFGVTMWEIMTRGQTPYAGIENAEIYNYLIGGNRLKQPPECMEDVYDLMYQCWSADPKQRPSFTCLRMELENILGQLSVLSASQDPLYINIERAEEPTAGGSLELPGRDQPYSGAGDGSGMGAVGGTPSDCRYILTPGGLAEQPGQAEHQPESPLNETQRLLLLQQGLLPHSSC
Put plainly: TR-FRET kinase activity assay, TYRO3. In kind it is biochemical. Conditions: ATP at Km, 60 minutes. The method, boiled down:
as §1
On the technique in general: Time-resolved FRET reads energy transfer from a long-lived donor to a nearby acceptor.

As to `CC1(Nc2ncc3c(-c4cnn(C5COC5)c4)cc(C4CCC(O)CC4)n3n2)COC1` (stereo not drawn) [Compound 399], the concentration for half-maximal inhibition (IC50) at MERTK and against TYRO3 was at most 100 nM in each case. For the same compound, on MERTK, the “FLT3/Mer ratio (FLT3 IC50/Mer IC50)” value was “+++ (“+++” represents a ratio of >100)”.

Consider `COC[C@H](C)Nc1ncc2c(-c3ccnc(O[C@H]4CCN(C)C4)c3)cc([C@H]3CC[C@H](O)CC3)n2n1` [Compound 400], for which, at MERTK, the half-inhibitory concentration (IC50) (commonly the point on the concentration scale where inhibition reaches its midpoint) was at most 100 nM and the “FLT3/Mer ratio (FLT3 IC50/Mer IC50)” value is listed as “+++ (“+++” represents a ratio of >100)”. In addition, the IC50 against TYRO3 was at most 100 nM.

Turning to `COC[C@H](C)Nc1ncc2c(-c3ccnc(O[C@@H]4CCNC4)c3)cc([C@H]3CC[C@H](O)CC3)n2n1` [Compound 401], on MERTK, the 50% inhibitory concentration (IC50) was at most 100 nM and the “FLT3/Mer ratio (FLT3 IC50/Mer IC50)” value is reported as “+++ (“+++” represents a ratio of >100)”. At TYRO3, this compound gave an IC50 of at most 100 nM.

In the case of `COC[C@H](C)Nc1ncc2c(-c3ccnc(O[C@@H]4CCN(C)C4)c3)cc([C@H]3CC[C@H](O)CC3)n2n1` [Compound 402], the half-maximal inhibitory concentration (IC50) at MERTK and on TYRO3 was at most 100 nM in each case. Also, the “FLT3/Mer ratio (FLT3 IC50/Mer IC50)” value on MERTK is given as “+++ (“+++” represents a ratio of >100)”.

Turning to `COC[C@H](C)Nc1ncc2c(-c3ccnc(O[C@H]4CCCN(C)C4)c3)cc([C@H]3CC[C@H](O)CC3)n2n1` [Compound 403], on MERTK, the concentration for half-maximal inhibition (IC50) is at most 100 nM and the “FLT3/Mer ratio (FLT3 IC50/Mer IC50)” value is listed as “+++ (“+++” represents a ratio of >100)”. The compound further came in with a concentration for half-maximal inhibition (IC50) against TYRO3 of at most 100 nM.

Consider `COC[C@H](C)Nc1ncc2c(-c3ccnc(O[C@@H]4CCCN(C)C4)c3)cc([C@H]3CC[C@H](O)CC3)n2n1` [Compound 404], for which, at MERTK, the IC50 was at most 100 nM and the “FLT3/Mer ratio (FLT3 IC50/Mer IC50)” value is given as “+++ (“+++” represents a ratio of >100)”. Further, the 50% inhibitory concentration (IC50) on TYRO3 was at most 100 nM.

For `C[C@@H](COC(F)F)Nc1ncc2c(-c3ccnc(N4CCOCC4)c3)cc([C@H]3CC[C@H](O)CC3)n2n1` [Compound 405], on MERTK, the IC50 is at most 100 nM and the “FLT3/Mer ratio (FLT3 IC50/Mer IC50)” value was “+++ (“+++” represents a ratio of >100)”. For the same compound, at TYRO3, the half-maximal inhibitory concentration (IC50) was at most 100 nM.

For the compound `COC[C@H](C)Nc1ncc2c(-c3cnn(C4COC4)c3)cc(C3CCC(=O)CC3)n2n1` [Compound 406], the half-inhibitory concentration (IC50) on MERTK and at TYRO3 was at most 100 nM each time. Besides, the “FLT3/Mer ratio (FLT3 IC50/Mer IC50)” value on MERTK is given as “+++ (“+++” represents a ratio of >100)”.

In the case of `CNC(=O)c1ncc(-c2cc([C@H]3CC[C@H](O)CC3)n3nc(N[C@@H](C)COC(F)F)ncc23)cn1` [Compound 407], at MERTK, the IC50 is at most 100 nM and the “FLT3/Mer ratio (FLT3 IC50/Mer IC50)” value is recorded as “+++ (“+++” represents a ratio of >100)”. The compound also showed an IC50 at TYRO3 of at most 100 nM.

Consider `COC[C@H](C)Nc1ncc2c(-c3cnn(C4(C(=O)N5CCCC5)CC4)c3)cc([C@H]3CC[C@H](O)CC3)n2n1` [Compound 408], for which, at MERTK, the concentration for half-maximal inhibition (IC50) is at most 100 nM and the “FLT3/Mer ratio (FLT3 IC50/Mer IC50)” value is given as “+++ (“+++” represents a ratio of >100)”. Besides, on TYRO3, the 50% inhibitory concentration (IC50) is at most 100 nM.

Consider `CNC(=O)c1cc(-c2cc([C@H]3CC[C@H](O)CC3)n3nc(N[C@@H](C)COC(F)F)ncc23)ccn1` [Compound 411], for which, at MERTK, the IC50 was at most 100 nM and the “FLT3/Mer ratio (FLT3 IC50/Mer IC50)” value was “+++ (“+++” represents a ratio of >100)”. Moreover, the IC50 on TYRO3 is at most 100 nM.

Turning to `C[C@@H](CC(F)(F)F)Nc1ncc2c(C3=CCN(C(=O)OC(C)(C)C)CC3)cc([C@H]3CC[C@H](O)CC3)n2n1` [Compound 412], on MERTK, the IC50 is at most 100 nM and the “FLT3/Mer ratio (FLT3 IC50/Mer IC50)” value is “+++ (“+++” represents a ratio of >100)”. The IC50 against TYRO3 was at most 100 nM.

In the case of `CC(=O)N1CCN(Cc2ccc(-c3cc([C@H]4CC[C@H](O)CC4)n4nc(N[C@@H](C)COC(F)F)ncc34)cc2)CC1` [Compound 413], at MERTK, the IC50 was at most 100 nM; the “FLT3/Mer ratio (FLT3 IC50/Mer IC50)” value was “++ (“++” represents a ratio of between 10 and 100)”. The IC50 at TYRO3 is at most 100 nM.

Consider `COC[C@H](C)Nc1ncc2c(-c3cnn(C4(C(=O)N5CCOCC5)CC4)c3)cc([C@H]3CC[C@H](O)CC3)n2n1` [Compound 414], for which the IC50 on MERTK and against TYRO3 was at most 100 nM each time. For the same compound, the “FLT3/Mer ratio (FLT3 IC50/Mer IC50)” value on MERTK is given as “+++ (“+++” represents a ratio of >100)”.

As for `COC[C@H](C)Nc1ncc2c(-c3cnn(C4(C(=O)NC(C)C)CC4)c3)cc([C@H]3CC[C@H](O)CC3)n2n1` [Compound 415], on MERTK, the IC50 was at most 100 nM and the “FLT3/Mer ratio (FLT3 IC50/Mer IC50)” value was “+++ (“+++” represents a ratio of >100)”. The IC50 at TYRO3 was at most 100 nM.

Turning to `COC[C@H](C)Nc1ncc2c(-c3ccnc(N[C@@H]4CCOC4)c3)cc([C@H]3CC[C@H](O)CC3)n2n1` [Compound 416], on MERTK, the half-inhibitory concentration (IC50) is at most 100 nM and the “FLT3/Mer ratio (FLT3 IC50/Mer IC50)” value was “+++ (“+++” represents a ratio of >100)”. This compound displayed an IC50 against TYRO3 of at most 100 nM.

With `COC[C@H](C)Nc1ncc2c(-c3ccnc(NC4CCOC4)c3)cc([C@H]3CC[C@H](O)CC3)n2n1` (stereo partly drawn) [Compound 418], at MERTK, the concentration for half-maximal inhibition (IC50) is at most 100 nM and the “FLT3/Mer ratio (FLT3 IC50/Mer IC50)” value is on record as “+++ (“+++” represents a ratio of >100)”. Moreover, the IC50 against TYRO3 is at most 100 nM.

In the case of `COC[C@H](C)Nc1ncc2c(-c3cnn(CS(C)(=O)=O)c3)cc([C@H]3CC[C@H](O)CC3)n2n1` [Compound 419], at MERTK, the IC50 is at most 100 nM and the “FLT3/Mer ratio (FLT3 IC50/Mer IC50)” value is “+++ (“+++” represents a ratio of >100)”. This compound also displayed a concentration for half-maximal inhibition (IC50) at TYRO3 of at most 100 nM.

On to `COC[C@H](C)Nc1ncc2c(-c3cnn(CC4COC4)c3)cc([C@H]3CC[C@H](O)CC3)n2n1` [Compound 420], for which, on MERTK, the half-maximal inhibitory concentration (IC50) is at most 100 nM and the “FLT3/Mer ratio (FLT3 IC50/Mer IC50)” value was “+++ (“+++” represents a ratio of >100)”. Also, the IC50 at TYRO3 is at most 100 nM.

For `COC[C@H](C)Nc1ncc2c(-c3cnn([C@@H]4CO[C@H]5OCC[C@H]54)c3)cc([C@H]3CC[C@H](O)CC3)n2n1` [Compound 422], at MERTK, the IC50 is at most 100 nM and the “FLT3/Mer ratio (FLT3 IC50/Mer IC50)” value was “+++ (“+++” represents a ratio of >100)”. Also, on TYRO3, the IC50 is at most 100 nM.
